This passage reports inhibition, IC50 and inhibition % results from PMC6832352, “Synthesis and Glycosidase Inhibition of Broussonetine M and Its Analogues” (Molecules, 2019).

pIC50: −log10 of the molar value.

Common to all, as to assay type: biochemical
Test [1] deals with T1, α-Glucosidase (Saccharomyces cerevisiae, UniProt P53341).
T1 construct: purchased Sigma-Aldrich Chemical Co
The test can be described thus: glycosidase inhibition assay, yeast α-glucosidase. The protocol: (§1) With rat intestinal maltase as an exception, other enzymes were purchased from Sigma-Aldrich Chemical Co. (St. Louis, Mo. USA). Brush border membranes prepared from rat small intestine according to the method of Kessler et al. were assayed at pH 6.8 for rat intestinal maltase using maltose. The released D-glucose was determined colorimetrically using the Glucose CII-test Wako (Wako Pure Chemical Ind.; Osaka, Japan). Other glycosidase activities were determined using an appropriate p-nitrophenyl glycoside as substrate in a buffer solution at the optimal pH value of each enzyme. The reaction was stopped by adding 400 mM Na2CO3. The released p-nitrophenol was measured spectrometrically at 400 nm.

Test [2] concerns the target T2, α-Glucosidase (Oryza sativa subsp. japonica, UniProt Q653V7).
T2 construct: purchased Sigma-Aldrich Chemical Co
The test is described as follows: glycosidase inhibition assay, rice α-glucosidase. The protocol: as §1

For a further test, the target named is Rat intestinal maltase. The test can be described thus: rat intestinal maltase inhibition (brush border membranes, maltose). The protocol: as §1
The next test has as its target β-Glucosidase. The test can be described thus: glycosidase inhibition assay, almond β-glucosidase. On the procedure: as §1
The next test addresses β-Galactosidase. The test can be described thus: glycosidase inhibition assay, bovine liver β-galactosidase. On the procedure: as §1
A further test deals with T3, α-Mannosidase (Canavalia ensiformis, UniProt C0HJB3).
T3 construct: purchased Sigma-Aldrich Chemical Co
T3 sequence (C0HJB3 1-981): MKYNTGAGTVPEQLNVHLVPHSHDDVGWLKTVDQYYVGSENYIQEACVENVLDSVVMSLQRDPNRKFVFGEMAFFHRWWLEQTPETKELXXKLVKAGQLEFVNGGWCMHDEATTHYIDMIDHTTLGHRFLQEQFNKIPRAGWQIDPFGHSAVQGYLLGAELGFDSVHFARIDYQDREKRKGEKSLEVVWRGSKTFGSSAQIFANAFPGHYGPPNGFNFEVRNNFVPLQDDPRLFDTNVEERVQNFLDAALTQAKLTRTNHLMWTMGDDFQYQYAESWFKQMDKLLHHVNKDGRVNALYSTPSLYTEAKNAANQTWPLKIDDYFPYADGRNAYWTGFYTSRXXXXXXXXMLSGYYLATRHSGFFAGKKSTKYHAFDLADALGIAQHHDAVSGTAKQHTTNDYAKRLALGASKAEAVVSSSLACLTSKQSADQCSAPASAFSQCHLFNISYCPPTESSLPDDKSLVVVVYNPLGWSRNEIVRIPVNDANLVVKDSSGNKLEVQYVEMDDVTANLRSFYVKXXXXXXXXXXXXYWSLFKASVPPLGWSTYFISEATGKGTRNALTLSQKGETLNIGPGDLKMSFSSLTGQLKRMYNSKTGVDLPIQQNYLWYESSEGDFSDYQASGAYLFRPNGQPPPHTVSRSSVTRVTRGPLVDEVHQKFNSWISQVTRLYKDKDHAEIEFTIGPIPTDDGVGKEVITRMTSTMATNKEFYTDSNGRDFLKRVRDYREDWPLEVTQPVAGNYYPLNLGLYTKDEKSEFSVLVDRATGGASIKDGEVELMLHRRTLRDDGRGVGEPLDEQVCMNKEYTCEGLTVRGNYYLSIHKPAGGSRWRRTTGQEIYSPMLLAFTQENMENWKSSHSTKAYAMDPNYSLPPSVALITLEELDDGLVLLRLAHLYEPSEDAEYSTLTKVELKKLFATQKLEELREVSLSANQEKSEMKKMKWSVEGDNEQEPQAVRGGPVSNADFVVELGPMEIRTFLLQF
The test is described as follows: glycosidase inhibition assay, jack bean α-mannosidase. On the procedure: as §1

The target in another test is β-Mannosidase. The test is described as follows: glycosidase inhibition assay, snail β-mannosidase. The protocol: as §1
Another test has as its target T4, α-L-Fucosidase (Bos taurus, UniProt Q2KIM0).
T4 construct: purchased Sigma-Aldrich Chemical Co; host or cells: bovine kidney
T4 sequence (Q2KIM0 23-468): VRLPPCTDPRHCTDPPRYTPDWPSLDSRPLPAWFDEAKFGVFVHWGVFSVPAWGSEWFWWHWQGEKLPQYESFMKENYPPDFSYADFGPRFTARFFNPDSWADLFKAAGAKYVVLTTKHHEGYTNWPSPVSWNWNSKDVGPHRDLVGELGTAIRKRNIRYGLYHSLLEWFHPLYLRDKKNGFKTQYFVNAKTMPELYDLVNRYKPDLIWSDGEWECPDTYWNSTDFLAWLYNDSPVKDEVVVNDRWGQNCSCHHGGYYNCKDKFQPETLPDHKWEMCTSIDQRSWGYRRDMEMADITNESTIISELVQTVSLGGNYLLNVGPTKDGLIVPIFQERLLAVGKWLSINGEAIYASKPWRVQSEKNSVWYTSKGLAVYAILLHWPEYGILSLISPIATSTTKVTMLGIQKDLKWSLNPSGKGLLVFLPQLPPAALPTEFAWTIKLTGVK
The test is described as follows: glycosidase inhibition assay, bovine kidney α-L-fucosidase. On the procedure:
as §1

In a further test the target is T5, Amyloglucosidase (Aspergillus niger, UniProt P69328).
T5 construct: purchased Sigma-Aldrich Chemical Co
The test can be described thus: glycosidase inhibition assay, A. niger amyloglucosidase. On the procedure: as §1

For another test, the target named is T6, β-Glucuronidase (Escherichia coli, UniProt P05804).
T6 construct: purchased Sigma-Aldrich Chemical Co
The test can be described thus: glycosidase inhibition assay, E. coli β-glucuronidase. On the procedure:
as §1

T2 sequence (Q653V7 34-885): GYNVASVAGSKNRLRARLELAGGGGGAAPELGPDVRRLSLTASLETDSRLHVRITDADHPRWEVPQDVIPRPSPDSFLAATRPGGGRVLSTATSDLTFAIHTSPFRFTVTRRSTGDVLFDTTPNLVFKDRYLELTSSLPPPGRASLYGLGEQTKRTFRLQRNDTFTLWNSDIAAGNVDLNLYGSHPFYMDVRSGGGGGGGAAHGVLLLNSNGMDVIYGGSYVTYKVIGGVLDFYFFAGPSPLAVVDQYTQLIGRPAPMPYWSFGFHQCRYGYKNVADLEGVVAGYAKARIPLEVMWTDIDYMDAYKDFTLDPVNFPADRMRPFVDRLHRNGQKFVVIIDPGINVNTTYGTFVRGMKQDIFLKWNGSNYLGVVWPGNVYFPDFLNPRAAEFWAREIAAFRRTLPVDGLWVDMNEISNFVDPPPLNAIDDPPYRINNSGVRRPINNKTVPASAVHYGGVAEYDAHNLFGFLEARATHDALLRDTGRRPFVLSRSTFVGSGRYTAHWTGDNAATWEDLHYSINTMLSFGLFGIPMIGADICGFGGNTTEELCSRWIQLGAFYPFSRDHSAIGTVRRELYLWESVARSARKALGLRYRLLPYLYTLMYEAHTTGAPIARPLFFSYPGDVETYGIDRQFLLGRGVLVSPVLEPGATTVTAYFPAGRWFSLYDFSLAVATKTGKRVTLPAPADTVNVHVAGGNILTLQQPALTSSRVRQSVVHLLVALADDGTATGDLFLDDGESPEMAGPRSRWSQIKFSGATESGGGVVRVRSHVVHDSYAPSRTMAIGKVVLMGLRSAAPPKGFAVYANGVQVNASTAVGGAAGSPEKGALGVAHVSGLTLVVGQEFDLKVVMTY
T6 sequence (P05804 whole entry): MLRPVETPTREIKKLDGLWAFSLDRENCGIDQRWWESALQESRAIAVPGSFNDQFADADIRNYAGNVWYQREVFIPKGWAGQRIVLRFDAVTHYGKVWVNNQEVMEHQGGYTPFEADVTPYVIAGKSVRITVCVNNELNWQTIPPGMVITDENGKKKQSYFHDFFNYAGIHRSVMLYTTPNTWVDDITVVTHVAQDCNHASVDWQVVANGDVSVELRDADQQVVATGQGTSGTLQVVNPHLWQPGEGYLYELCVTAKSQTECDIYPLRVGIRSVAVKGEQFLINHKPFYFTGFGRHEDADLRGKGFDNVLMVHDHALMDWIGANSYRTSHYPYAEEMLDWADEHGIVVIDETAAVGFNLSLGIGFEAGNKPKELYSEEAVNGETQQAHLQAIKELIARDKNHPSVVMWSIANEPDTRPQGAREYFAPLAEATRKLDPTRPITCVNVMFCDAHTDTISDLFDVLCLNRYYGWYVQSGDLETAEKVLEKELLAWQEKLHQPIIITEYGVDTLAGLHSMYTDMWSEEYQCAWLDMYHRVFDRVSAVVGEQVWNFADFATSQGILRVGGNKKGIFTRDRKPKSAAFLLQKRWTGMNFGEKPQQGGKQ
T1 sequence (P53341 whole entry): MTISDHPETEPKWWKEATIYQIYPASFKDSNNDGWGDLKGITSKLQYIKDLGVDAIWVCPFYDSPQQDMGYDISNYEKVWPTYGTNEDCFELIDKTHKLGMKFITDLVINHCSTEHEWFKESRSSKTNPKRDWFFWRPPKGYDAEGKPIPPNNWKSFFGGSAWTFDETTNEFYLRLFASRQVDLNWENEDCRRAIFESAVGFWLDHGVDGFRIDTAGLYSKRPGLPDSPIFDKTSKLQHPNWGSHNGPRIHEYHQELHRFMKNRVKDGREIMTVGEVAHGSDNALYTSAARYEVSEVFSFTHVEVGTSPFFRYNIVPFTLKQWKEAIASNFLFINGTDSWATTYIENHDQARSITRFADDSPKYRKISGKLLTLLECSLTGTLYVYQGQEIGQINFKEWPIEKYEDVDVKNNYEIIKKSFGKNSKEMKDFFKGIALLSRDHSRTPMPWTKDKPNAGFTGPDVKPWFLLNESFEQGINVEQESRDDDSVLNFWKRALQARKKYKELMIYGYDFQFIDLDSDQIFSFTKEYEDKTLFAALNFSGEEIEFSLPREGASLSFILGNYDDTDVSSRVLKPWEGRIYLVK
T5 sequence (P69328 25-640): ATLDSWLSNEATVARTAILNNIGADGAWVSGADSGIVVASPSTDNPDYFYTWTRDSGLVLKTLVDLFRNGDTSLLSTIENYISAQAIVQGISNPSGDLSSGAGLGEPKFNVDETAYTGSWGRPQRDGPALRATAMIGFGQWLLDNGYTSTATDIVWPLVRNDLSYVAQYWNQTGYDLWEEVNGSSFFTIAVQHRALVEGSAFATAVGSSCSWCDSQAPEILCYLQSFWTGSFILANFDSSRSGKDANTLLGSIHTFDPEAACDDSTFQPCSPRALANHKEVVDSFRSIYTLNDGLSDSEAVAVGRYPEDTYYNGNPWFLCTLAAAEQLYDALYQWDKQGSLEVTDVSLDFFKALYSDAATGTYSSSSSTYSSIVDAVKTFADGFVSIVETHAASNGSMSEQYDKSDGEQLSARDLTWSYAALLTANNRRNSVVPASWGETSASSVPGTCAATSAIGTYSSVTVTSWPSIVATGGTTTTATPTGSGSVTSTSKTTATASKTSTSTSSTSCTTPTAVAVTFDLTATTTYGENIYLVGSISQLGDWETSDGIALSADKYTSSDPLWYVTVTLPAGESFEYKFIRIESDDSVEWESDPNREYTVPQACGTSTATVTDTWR

For orientation: inhibition means the share of the control response that was lost under treatment. Low readings indicate a weak effect, high ones a strong effect. Broadly, the pIC50 is the negative decadic logarithm of the IC50, by convention in mol/L. Low readings indicate a high IC50, high ones a low IC50. In the case of `OCCC[C@H](O)CCCCCCCCC[C@@H]1N[C@@H](CO)[C@@H](O)[C@H]1O` [ent-3-epi-3, (2S,3R,4S,5S)-2-hydroxymethyl-3,4-dihydroxyl-5-((10S)-10,13-(dihydroxyl)dec-1-yl) pyrrolidine], the inhibition at 100 µM against α-Glucosidase [1] turned out to be 0%; against α-Glucosidase [2] (at 100 μM, α-Glucosidase, Rice), 23%; on α-Mannosidase (at 100 μM), 1.3%; at Amyloglucosidase (at 100 μM), 0%; on β-Glucuronidase (at 100 μM), 28.7%. Besides, the negative-log IC50 (pIC50) against α-Glucosidase [1] (α-Glucosidase, Yeast) is less than 4.00; on α-Glucosidase [2], less than 4.00; at Rat intestinal maltase, 4.38; on β-Glucosidase, less than 4.00; at β-Galactosidase, 4.39; on α-Mannosidase, less than 4.00. Also, the pIC50 on β-Mannosidase is less than 4.00; on α-L-Fucosidase, 4.30; on Amyloglucosidase, less than 4.00; on β-Glucuronidase, less than 4.00. For the same compound, the inhibition % in the test with β-Glucosidase (at 100 μM) was 4.6%; with β-Mannosidase (at 100 μM), 0%.
